Test results published in US20250295652A1, “Inhibitors of Molluscum Contagiosum Infection and Methods Using the Same” (priority 2021, published 2025).

System: mD4-VV surrogate virus
Test: microbe, parasite or virus in culture
Assay type: cell-based, mD4/vaccinia hybrid virus
Settings: for EC50: Hybrid virus, BSC-1, read-out: mD4 EC50

SMILES | % @ 25 uM (mD4) | EC50
O=C(NCc1ccccc1)c1nnsc1NC(=O)N1CCN(c2ccccc2)CC1 [Compound 123, 4-Phenyl-piperazine-1-carboxylic acid (4-benzylcarbamoyl-[1,2,3]thiadiazol-5-yl)-amide] | 44% @ 25 uM | 
CCC(C(=O)Nc1sccc1C(=O)OC)c1ccccc1 (centres unmarked) [Compound 112, Methyl 2-(2-phenylbutanamido)thiophene-3-carboxylate] | 59% @ 25 uM | 
Cc1ccc(CNC(=O)c2nnsc2NC(=O)N2CCN(c3ccccn3)CC2)cc1 [Compound 124, 4-Pyridin-2-yl-piperazine-1-carboxylic acid [4-(4-methyl-benzylcarbamoyl)-[1,2,3]thiadiazol-5-yl]-amide] |  | 14.5 µM
CCC(C(=O)Nc1sc(C(N)=O)c(C)c1C(=O)OC)c1ccccc1OC (centres unmarked) [Compound 95, Methyl 2-(2-(2-methoxyphenyl)butanamido)-5-carbamoyl-4-methylthiophene-3-carboxylate] |  | 21.2 µM
O=C(NCc1ccccc1)c1nnsc1NC(=O)N1CCN(c2ccccc2F)CC1 [Compound 169, 4-(2-Fluoro-phenyl)-piperazine-1-carboxylic acid (4-benzylcarbamoyl-[1,2,3]thiadiazol-5-yl)-amide] |  | 32.7 µM
CCOC(=O)c1ncsc1NC(=O)C(CC)c1ccccc1 (centres unmarked) [Compound 165, Ethyl 5-(2-phenylbutanamido)thiazole-4-carboxylate] | 30.6% @ 25 uM | 
CCC(C(=O)Nc1sc(C(N)=O)c(C)c1C(=O)OC)c1ccc(C)cc1 (centres unmarked) [Compound 188, Methyl 5-carbamoyl-4-methyl-2-(2-(p-tolyl)butanamido)thiophene-3-carboxylate] |  | 64.1 µM
CCC(C(=O)Nc1sc(C(=O)N2CCNCC2)c(C)c1C(=O)OC)c1ccc(F)cc1 (centres unmarked) [Compound 201, Methyl 2-[2-(4-fluorophenyl)butanamido]-4-methyl-5-(piperazine-1-carbonyl)thiophene-3-carboxylate] |  | > 25 µM
CCC(C(=O)Nc1sc(C(N)=O)c(C)c1C(=O)OC)c1ccc(Cl)cc1 (centres unmarked) [Compound 191, Methyl 5-carbamoyl-2-(2-(4-chlorophenyl)butanamido)-4-methylthiophene-3-carboxylate] |  | 11.4 µM
CCC(C(=O)Nc1sc(C(N)=O)c(C)c1C(=O)OC)c1ccc(C(F)(F)F)cc1 (centres unmarked) [Compound 190, methyl 5-carbamoyl-4-methyl-2-(2-(4-(trifluoromethyl)phenyl)butanamido)thiophene-3-carboxylate] |  | 4.8 µM
CCC(C(=O)Nc1sc(C(=O)OC(C)(C)C)c(C)c1C(=O)OC)c1cc(F)cc(F)c1 (centres unmarked) [Compound 194, 2-tert-butyl 4-methyl 5-(2-(3,5-difluorophenyl)butanamido)-3-methylthiophene-2,4-dicarboxylate] |  | > 50 µM
O=C(CCCc1ccccn1)Nc1snnc1C(=O)NCc1ccc(Cl)cc1 [Compound 175, 5-(4-(Pyridin-2-yl)butanamido)-N-(4-chlorobenzyl)-1,2,3-thiadiazole-4-carboxamide] |  | 15.5 µM
O=C(Nc1snnc1-c1ccc(C(F)(F)F)cc1)N1CCN(c2ccccn2)CC1 [Compound 118, 4-Pyridin-2-yl-piperazine-1-carboxylic acid [4-(4-trifluoromethyl-phenyl)-[1,2,3]thiadiazol-5-yl]-amide] |  | 4 µM
CCC(C(=O)Nc1scnc1C(=O)NCc1ccccc1)c1ccccc1 (centres unmarked) [Compound 162, 5-(2-Phenylbutanamido)-N-benzylthiazole-4-carboxamide] |  | 18.1 µM
CCC(C(=O)Nc1snnc1C(=O)NCc1ccc(Cl)cc1)c1ccccc1 (centres unmarked) [Compound 134, 5-(2-Phenyl-butyrylamino)-[1,2,3]thiadiazole-4-carboxylic acid 4-chloro-benzylamide] |  | 11.5 µM
CCC(C(=O)Nc1sc(C(N)=O)c(C)c1C(=O)OC)c1ccc2c(c1)OCO2 (centres unmarked) [Compound 193, Methyl 2-(2-(benzo[d][1,3]dioxol-5-yl)butanamido)-5-carbamoyl-4-methylthiophene-3-carboxylate] |  | > 50 µM
CCC(C(=O)Nc1sc(C(N)=O)c(C)c1C(=O)OC)c1cc(F)cc(F)c1 (centres unmarked) [Compound 195, Methyl 2-(2-(3,5-difluorophenyl)butanamido)-5-carbamoyl-4-methylthiophene-3-carboxylate] |  | 25.8 µM
CCC(C(=O)Nc1sc(C(N)=O)c(C)c1C(=O)OC)c1cccc(F)c1 (centres unmarked) [Compound 98, Methyl 2-(2-(3-fluorophenyl)butanamido)-5-carbamoyl-4-methylthiophene-3-carboxylate] |  | 18 µM
O=C(NCc1ccccc1)c1ccsc1NC(=O)N1CCN(c2ccccn2)CC1 [Compound 130, N-(3-(Benzylcarbamoyl)thiophen-2-yl)-4-(pyridin-2-yl)piperazine-1-carboxamide] |  | 32.8 µM
CCC(C(=O)NC(=O)c1sc(N)c(C(=O)OC)c1C)c1ccc(F)cc1 (centres unmarked) [Compound 174, Methyl 5-(2-(4-fluorophenyl)butanoylcarbamoyl)-2-amino-4-methylthiophene-3-carboxylate] |  | 20.5 µM
CCC(C(=O)Nc1snnc1-c1ccccc1)c1ccccc1 (centres unmarked) [Compound 155, 2-Phenyl-N-(4-phenyl-[1,2,3]thiadiazol-5-yl)-butyramide] |  | 16.2 µM

SMILES | % @ 25 uM (mD4) | EC50
CCC(C(=O)Nc1sc(C(=O)OC(C)(C)C)c(C)c1C(=O)OC)c1ccc2c(c1)OCO2 (centres unmarked) [Compound 192, 2-tert-butyl 4-methyl 5-(2-(benzo[d][1,3]dioxol-5-yl)butanamido)-3-methylthiophene-2,4-dicarboxylate] |  | > 50 µM
CCC(C(=O)Nc1sc(C(N)=O)c(C)c1C(=O)NCc1ccc(Cl)cc1)c1ccccc1 (centres unmarked) [Compound 115, 2-(2-Phenylbutanamido)-N3-(4-chlorobenzyl)-4-methylthiophene-3,5-dicarboxamide] |  | 11 µM
CCOC(=O)c1ncsc1NC(=O)N1CCN(c2ccccn2)CC1 [Compound 127, Ethyl 5-(4-(pyridin-2-yl)piperazine-1-carboxamido)thiazole-4-carboxylate] |  | 29.5 µM
CCC(C(=O)Nc1sc(C(=O)OC(C)(C)C)c(C)c1C(=O)OC)c1ccc(C(F)(F)F)cc1 (centres unmarked) [Compound 198, 2-tert-butyl 4-methyl 5-(2-(4-(trifluoromethyl)phenyl)butanamido)-3-methylthiophene-2,4-dicarboxylate] |  | > 50 µM
Cc1c(C(N)=O)sc(NC(=O)N2CCN(c3ccccn3)CC2)c1C(=O)NCc1ccccc1 [Compound 131, 2-(4-(pyridin-2-yl)piperazine-1-carboxamido)-N3-benzyl-4-methylthiophene-3,5-dicarboxamide] |  | 31.8 µM
CCC(C(=O)Nc1sc(C(N)=O)c(C)c1C(=O)OC)c1ccc(OC)cc1 (centres unmarked) [Compound 97, Methyl 2-(2-(4-methoxyphenyl)butanamido)-5-carbamoyl-4-methylthiophene-3-carboxylate] | 37% @ 25 uM | 
CCC(C(=O)Nc1sc(C(=O)NCCCN)c(C)c1C(=O)OC)c1ccc(F)cc1 (centres unmarked) [Compound 203, Methyl 5-(3-aminopropylcarbamoyl)-2-(2-(4-fluorophenyl)butanamido)-4-methylthiophene-3-carboxylate] |  | 20 µM
CCC(C(=O)Nc1sc(C(=O)NCCc2cccnc2)c(C)c1C(=O)OC)c1ccc(F)cc1 (centres unmarked) [Compound 187, methyl 2-(2-(4-fluorophenyl)butanamido)-4-methyl-5-((2-(pyridin-3-yl)ethyl)carbamoyl)thiophene-3-carboxylate] |  | 13.8 µM
CCC(C(=O)Nc1sc(C(N)=O)c(C)c1C(=O)OC)c1ccccc1F (centres unmarked) [Compound 189, Methyl 5-carbamoyl-2-(2-(2-fluorophenyl)butanamido)-4-methylthiophene-3-carboxylate] |  | 15.2 µM
CCOC(=O)c1nnsc1NC(=O)C(CC)c1ccccc1 (centres unmarked) [Compound 106, 5-(2-Phenyl-butyrylamino)-[1,2,3]thiadiazole-4-carboxylic acid ethyl ester] | 40% @ 25 uM | 
CCC(C(=O)Nc1sc(C(=O)NCCCNC(=O)OC(C)(C)C)c(C)c1C(=O)OC)c1ccc(F)cc1 (centres unmarked) [Compound 202, Methyl 5-((3-((tert-butoxycarbonyl)amino)propyl)carbamoyl)-2-(2-(4-fluorophenyl)butanamido)-4-methylthiophene-3-carboxylate] |  | > 50 µM
COC(=O)c1ccsc1NC(=O)N1CCN(c2ccccn2)CC1 [Compound 114, Methyl 2-(4-(pyridin-2-yl)piperazine-1-carboxamido)thiophene-3-carboxylate] | 32% @ 25 uM | 
CCC(C(=O)Nc1snnc1C(=O)NCc1ccccc1)c1ccccc1 (centres unmarked) [Compound 135, 5-(2-Phenyl-butyrylamino)-[1,2,3]thiadiazole-4-carboxylic acid benzylamide] |  | 18.5 µM
CCC(C(=O)Nc1sc(C(N)=O)c(C)c1C(=O)OC)c1ccc(C#N)cc1 (centres unmarked) [Compound 197, Methyl 2-(2-(4-cyanophenyl)butanamido)-5-carbamoyl-4-methylthiophene-3-carboxylate] |  | 42 µM
CCC(C(=O)Nc1snnc1-c1ccc(F)cc1)c1ccccc1 (centres unmarked) [Compound 154, N-[4-(4-Fluoro-phenyl)-[1,2,3]thiadiazol-5-yl]-2-phenyl-butyramide] |  | 32 µM
O=C(Nc1snnc1C(=O)NCc1ccc(Cl)cc1)Oc1ccccc1 [Compound 132, [4-(4-Chloro-benzylcarbamoyl)-[1,2,3]thiadiazol-5-yl]-carbamic acid phenyl ester] |  | 16.4 µM
COC(=O)c1c(NC(=O)N2CCN(c3ccccn3)CC2)sc(C(N)=O)c1C [Compound 116, Methyl 2-(4-(pyridin-2-yl)piperazine-1-carboxamido)-5-carbamoyl-4-methylthiophene-3-carboxylate] | 30% @ 25 uM | 
CCC(C(=O)Nc1sc(C(=O)NC(C)c2ccncc2)c(C)c1C(=O)OC)c1ccc(F)cc1 (centres unmarked) [Compound 186, methyl 2-(2-(4-fluorophenyl)butanamido)-4-methyl-5-((1-(pyridin-4-yl)ethyl)carbamoyl)thiophene-3-carboxylate] |  | 20 µM
CCC(C(=O)Nc1sc(C(N)=O)c(C)c1C(=O)OC)c1cccc(OC)c1 (centres unmarked) [Compound 96, Methyl 2-(2-(3-methoxyphenyl)butanamido)-5-carbamoyl-4-methylthiophene-3-carboxylate] | 56% @ 25 uM | 
CCC(C(=O)Nc1snnc1-c1ccccc1F)c1ccccc1 (centres unmarked) [Compound 153, N-[4-(2-Fluoro-phenyl)-[1,2,3]thiadiazol-5-yl]-2-phenyl-butyramide] |  | 10.2 µM
